Laboratory results taken from patent US9353072B2, “Antimicrobial substituted thiazoles and methods of use” (Purdue Research Foundation, priority 2012, dated 2016).
≈ marks a conversion by molar mass, not a printed value.

Assays:
NRS108 = experiment: MIC broth microdilution, NRS108; format: cell-based; conditions: Staphylococcus aureus, Table 2, read-out: Minimum Inhibitory Concentration
Method: (§1) Determination of minimum inhibitory concentration (MIC). The MICs of the lead thiazole compound (compound 1a) and nine derivatives tested against all 18 MRSA strains were determined, in triplicate samples, using the broth microdilution method in accordance with the recommendations contained in the CLSI guidelines.

MRSA USA800 = experiment: MIC broth microdilution, MRSA USA800; format: cell-based; conditions: Staphylococcus aureus, Table 2, read-out: Minimum Inhibitory Concentration
Method: as §1

NRS107 = experiment: MIC/MBC broth microdilution, NRS107; format: cell-based; conditions: Staphylococcus aureus, Table 2, read-out: Minimum Inhibitory Concentration
Method: as §1

[1] = tested on: murine macrophage cells (J774.A1); experiment: In vitro cytotoxicity analysis, MTS assay; format: cell-based; conditions: 16 μM, 24 hours
Method: In vitro cytotoxicity analysis: Compounds were assayed at concentrations of 2 μM, 4 μM, 8 μM, and 16 μM against a macrophage cell line (J774.A1) to determine the potential toxic effect in vitro. Murine macrophage cells were cultured in Dulbeco's Modified Eagle Medium (Sigma-Aldrich, St. Louis, Mo., USA) with 10% Fetal Bovine Serum (USA Scientific, Inc.) at 37° C. with 5% CO2. Controls received DMSO alone at a concentration equal to that in drug-treated cell samples. The cells were incubated with the compounds in a 96-Well Plate at 37° C. and 5.0% CO2 for 24 hours prior to addition of the assay reagent MTS 3-(4,5-dimethylthiazol-2-yl)-5-(3-carboxymethoxyphenyl)-2-(4-sulfophenyl)-2H-tetrazolium) (Promega, Madison, Wis., USA). The reagent measures the succinate dehydrogenase mitochondrial activity as an indicator of cell viability and proliferation. Corrected absorbance readings (actual absorbance readings for each treatment subtracted from background absorbance) were taken using a kinetic ELISA microplate reader (Molecular Devices, Sunnyvale, Calif., USA). The quantity of viable cells after treatment with each compound was expressed as a percentage of the control, DMSO.

MRSA USA200 = experiment: MIC broth microdilution, MRSA USA200; format: cell-based; conditions: Staphylococcus aureus; Table 2; MRSA USA200; read-out: Minimum Inhibitory Concentration
Method: as §1

VRSA (VRS10) = experiment: MIC/MBC broth microdilution, VRSA (VRS10); format: cell-based, Staphylococcus aureus; conditions: Staphylococcus aureus; Table 2; VRSA; read-out: Minimum Inhibitory Concentration
Method: as §1

NRS119 = experiment: MIC/MBC broth microdilution, NRS119; format: cell-based; conditions: Staphylococcus aureus; Table 2; NRS119; read-out: Minimum Inhibitory Concentration
Method: as §1

MRSA NRS384 (USA300) = experiment: MIC/MBC broth microdilution, NRS384 (USA300); format: cell-based; conditions: Staphylococcus aureus; Table 2; MRSA USA300; read-out: Minimum Inhibitory Concentration
Summary of the method: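 Broth microdilution following CLSI guidelines was used to determine MICs, with each strain tested in triplicate.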

NRS194 = experiment: MIC/MBC broth microdilution, NRS194; format: cell-based; conditions: Staphylococcus aureus, Table 2, read-out: Minimum Inhibitory Concentration
Method: as §1

VISA LIM 3 (NRS37) = experiment: MIC/MBC broth microdilution, NRS37 (VISA LIM 3); format: cell-based; conditions: Staphylococcus aureus; Table 2; VISA LIM 3; read-out: Minimum Inhibitory Concentration
Method: as §1

MRSA USA400 (NRS123) = experiment: MIC/MBC broth microdilution, NRS123 (USA400); format: cell-based; conditions: Staphylococcus aureus; Table 2; MRSA USA400; read-out: Minimum Inhibitory Concentration
Method: as §1

[2] = tested on: 18 different strains of MRSA and VRSA; experiment: MIC broth microdilution, panel of 18 MRSA and VRSA strains (summary statements); format: cell-based, Staphylococcus aureus; conditions: relative to lead compound 1a; number of strains as stated in the sentence
Method: as §1

MRSA USA500 (NRS385) = experiment: MIC/MBC broth microdilution, NRS385 (USA500); format: cell-based; conditions: Staphylococcus aureus; Table 2; MRSA USA500; read-out: Minimum Inhibitory Concentration
Method: as §1

[3] = tested on: MRSA ATCC 700699 (NRS1, VISA); experiment: MIC/MBC broth microdilution, NRS1 (ATCC 700699); format: cell-based; conditions: Staphylococcus aureus; Table 2; MRSA ATCC 700699; read-out: Minimum Inhibitory Concentration
Method: as §1

MRSA USA100 = experiment: MIC broth microdilution, MRSA USA100; format: cell-based; conditions: Staphylococcus aureus; Table 2; MRSA USA100; read-out: Minimum Inhibitory Concentration
Method: as §1

VISA HIP07256 (NRS19) = experiment: MIC/MBC broth microdilution, NRS19 (VISA HIP07256); format: cell-based; conditions: Staphylococcus aureus; Table 2; VISA HIP07256; read-out: Minimum Inhibitory Concentration
Method: as §1

MRSA USA1100 = experiment: MIC broth microdilution, MRSA USA1100; format: cell-based; conditions: Staphylococcus aureus, Table 2, read-out: Minimum Inhibitory Concentration
Method: as §1

MRSA (USA300) = experiment: Time-kill assay; format: cell-based, Staphylococcus aureus; conditions: 3.0×MIC
Method: Time-kill assay. […] Viable CFU/mL was determined by serial dilution and plating on trypticase soy agar (TSA) (Becton, Dickinson and Company, Sparks, Md., USA) plates after 0, 2, 4, 6, 8, 10, and 12 hours of incubation at 37° C. to identify the time required to reduce the bacterial cell count by 3-log10.

MRSA USA700 = experiment: MIC broth microdilution, MRSA USA700; format: cell-based; conditions: Staphylococcus aureus, Table 2, read-out: Minimum Inhibitory Concentration
Method: as §1

MRSA ATCC 43300 = experiment: Flow cytometry with LIVE/DEAD Fixable Dead Cell Stain; format: cell-based, Staphylococcus aureus; conditions: compound 1a at 4.0×MIC; lysostaphin positive control; 10 minutes at 37° C.
Method: Flow cytometry and LIVE/DEAD® Fixable Dead Cell Stain: The action of the lead compound on cell membrane permeability of MRSA was assayed using the LIVE/DEAD® Fixable Dead Cell Stain Kit (Invitrogen, Eugene, Oreg., USA) according to the manufacturer's instructions. […] Post-treatment cells were fixed with 3.7% formaldehyde; the cells were then screened with a Beckman Coulter FC500 flow cytometer.

Row | Compound | MIC (NRS108) [µg/mL] | MIC (NRS107) [µg/mL] | toxicity toward murine macrophage cells [1] | MIC (MRSA USA200) [µg/mL] | MIC (VRSA (VRS10)) [µg/mL] | MIC (MRSA NRS384 (USA300)) [µg/mL] | MIC (NRS194) [µg/mL] | MIC (VISA LIM 3 (NRS37)) [µg/mL] | MIC (MRSA USA400 (NRS123)) [µg/mL] | improvement in the MIC value relative to the lead compound [2] | MIC (MRSA USA500 (NRS385)) [µg/mL] | MIC [3] [µg/mL] | MIC (MRSA USA100) [µg/mL] | MIC (MRSA USA1100) [µg/mL] | also measured
1 | C/C(=N\NC(=N)N)c1sc(-c2ccc(C3=CCCCC3)cc2)nc1C [Compound 7, 2-{1-[2-(4-(1-Cyclohexenyl)phenyl)-4-methylthiazol-5-yl]ethylidene}hydrazine-carboximidamide] | 2.3 (≈ 6.51 µM) | 0.6 (≈ 1.7 µM) | none were observed to be toxic | 1.2 (≈ 3.39 µM) | 1.3 (≈ 3.68 µM) | 1.2 (≈ 3.39 µM) | 0.6 (≈ 1.7 µM) | 0.6 (≈ 1.7 µM) | 0.6 (≈ 1.7 µM) | two- to four-fold improvement | 1.2 (≈ 3.39 µM) | 0.6 (≈ 1.7 µM) | 1.2 (≈ 3.39 µM) |  | MIC (MRSA USA800): 0.6 µg/mL (≈ 1.7 µM); MIC (NRS119): 0.6 µg/mL (≈ 1.7 µM); MIC (VISA HIP07256 (NRS19)): 0.6 µg/mL (≈ 1.7 µM)
2 | C/C(=N\NC(=N)N)c1sc(-c2ccc(C3CCCCC3)cc2)nc1C [Compound 8, 2-{1-[2-(4-Cyclohexylphenyl)-4-methylthiazol-5-yl]ethylidene}hydrazinecarboximid-amide] |  | 0.7 (≈ 1.97 µM) | none were observed to be toxic | 1.5 (≈ 4.22 µM) |  | 0.7 (≈ 1.97 µM) |  | 0.4 (≈ 1.13 µM) | 0.7 (≈ 1.97 µM) | two- to four-fold improvement | 0.7 (≈ 1.97 µM) | 0.7 (≈ 1.97 µM) |  | 0.7 (≈ 1.97 µM) | bactericidal effect in time-kill assay (MRSA (USA300); 12 hour incubation at 37° C.): bactericidal; time to eliminate MRSA completely (reduce CFU to zero) (MRSA (USA300); MRSA (USA300)): six hours
3 | C/C(=N\NC(=N)N)c1sc(-c2ccc(-c3ccccc3)cc2)nc1C [Compound 12, 2-{1-[2-([1,1′-Biphenyl]-4-yl)-4-methylthiazol-5-yl]ethylidene}hydrazinecarboximid-amide] | 2.4 (≈ 6.87 µM) |  | none were observed to be toxic |  | 1.2 (≈ 3.43 µM) | 1.2 (≈ 3.43 µM) | 1.2 (≈ 3.43 µM) |  | 0.6 (≈ 1.72 µM) | two- to four-fold improvement | 1.2 (≈ 3.43 µM) | 0.6 (≈ 1.72 µM) | 2.4 (≈ 6.87 µM) | 0.6 (≈ 1.72 µM) | MIC (MRSA USA700): 0.6 µg/mL (≈ 1.72 µM)
4 | lysostaphin: positive control; disrupts the cross-linking of the pentaglycin bridges in the cell wall of staphylococci [reference compound] |  |  |  |  |  |  |  |  |  |  |  |  |  |  | cells stained with the dye (MRSA ATCC 43300): 45%
